In ChEMBL document CHEMBL1136735, “Design and synthesis of naphthalenic dimers as selective MT1 melatoninergic ligands” (J Med Chem, 2003):
Calls of active or inactive are those of the source. The calls are words filed in the database; no cut-off is given here.

These molecules were tested against T1, Melatonin receptor type 1A (Homo sapiens, UniProt P48039). Details: CHO.
T1 sequence (P48039 whole entry): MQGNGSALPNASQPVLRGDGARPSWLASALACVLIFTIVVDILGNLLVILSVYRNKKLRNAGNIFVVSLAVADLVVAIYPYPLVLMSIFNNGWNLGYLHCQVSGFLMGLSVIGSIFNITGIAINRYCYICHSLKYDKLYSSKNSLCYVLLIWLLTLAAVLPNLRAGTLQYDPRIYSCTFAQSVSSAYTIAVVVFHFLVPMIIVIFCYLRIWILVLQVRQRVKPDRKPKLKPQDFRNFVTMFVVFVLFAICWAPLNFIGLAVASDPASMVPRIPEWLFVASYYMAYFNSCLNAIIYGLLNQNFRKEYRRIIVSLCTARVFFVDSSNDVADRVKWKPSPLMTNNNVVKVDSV

IA	Compound
inactive	CC(=O)NCCc1cccc2ccc(OCCCOc3ccc4cccc(CCNC(C)=O)c4c3)cc12

The molecules below were run against T2, Melatonin receptor type 1B (Homo sapiens) (UniProt P49286). Details: CHO.
T2 sequence (whole entry): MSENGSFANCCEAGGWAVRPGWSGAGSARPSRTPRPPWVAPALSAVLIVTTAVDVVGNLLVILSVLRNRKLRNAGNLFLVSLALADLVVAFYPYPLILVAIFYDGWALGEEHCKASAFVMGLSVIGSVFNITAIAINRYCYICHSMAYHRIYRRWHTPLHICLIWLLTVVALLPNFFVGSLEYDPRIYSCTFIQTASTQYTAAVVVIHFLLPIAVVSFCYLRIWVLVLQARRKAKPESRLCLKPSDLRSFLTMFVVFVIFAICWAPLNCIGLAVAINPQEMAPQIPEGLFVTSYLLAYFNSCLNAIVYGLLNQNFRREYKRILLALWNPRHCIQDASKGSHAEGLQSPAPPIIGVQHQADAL

IA	Compound
inactive	CC(=O)NCCc1cccc2ccc(OCCCOc3ccc4cccc(CCNC(C)=O)c4c3)cc12

These molecules were tested against T3, Melatonin receptor type 1B (Homo sapiens, UniProt P49286) (assay: Binding affinity for human Melatonin receptor type 1B stably transfected in human embryonic kidney cells (HEK 293) using 2-[125I]iodomelatonin as radioligand). Details: not given.
T3 sequence (P49286 whole entry): T2 sequence (whole entry)
Type: cell-based, HEK293

Ki	Compound
112 nM	CC(=O)NCCc1cccc2ccc(OCCCOc3ccc4cccc(CCNC(C)=O)c4c3)cc12
1.74 nM	CC(=O)NCCc1cccc2ccc(OCCCCCOc3ccc4cccc(CCNC(C)=O)c4c3)cc12
72.7 nM	CC(=O)NCCc1cccc2ccc(OCCCCOc3ccc4cccc(CCNC(C)=O)c4c3)cc12

The next lines start with the molecule.

Compound	Ki
CC(=O)NCCc1cccc2ccc(OCCOc3ccc4cccc(CCNC(C)=O)c4c3)cc12	182 nM
CC(=O)NCCc1cccc2ccc(OCCCCCCOc3ccc4cccc(CCNC(C)=O)c4c3)cc12	2.33 nM
CC(=O)NCCc1cccc2ccc(OCCCCCCCCCCOc3ccc4cccc(CCNC(C)=O)c4c3)cc12	0.04 nM
CC(=O)NCCc1cccc2ccc(OCCCCCCCCOc3ccc4cccc(CCNC(C)=O)c4c3)cc12	0.18 nM

What follows are molecules tested against T1, Melatonin receptor type 1A (assay: Binding affinity for human Melatonin receptor type 1A stably transfected in human embryonic kidney cells (HEK 293) using 2-[125I]iodomelatonin as radioligand). Details: not given.
Type: cell-based, HEK293

Ki	Compound
0.5 nM	CC(=O)NCCc1cccc2ccc(OCCCOc3ccc4cccc(CCNC(C)=O)c4c3)cc12
0.05 nM	CC(=O)NCCc1cccc2ccc(OCCCCCOc3ccc4cccc(CCNC(C)=O)c4c3)cc12
0.6 nM	CC(=O)NCCc1cccc2ccc(OCCCCOc3ccc4cccc(CCNC(C)=O)c4c3)cc12

Further lines, the molecule ahead of its results:

Compound	Ki
CC(=O)NCCc1cccc2ccc(OCCOc3ccc4cccc(CCNC(C)=O)c4c3)cc12	2.05 nM
CC(=O)NCCc1cccc2ccc(OCCCCCCOc3ccc4cccc(CCNC(C)=O)c4c3)cc12	0.08 nM
CC(=O)NCCc1cccc2ccc(OCCCCCCCCCCOc3ccc4cccc(CCNC(C)=O)c4c3)cc12	0.03 nM
CC(=O)NCCc1cccc2ccc(OCCCCCCCCOc3ccc4cccc(CCNC(C)=O)c4c3)cc12	0.05 nM
